How the values were obtained:
[1] = tested on: MRSA; assay: Antibacterial susceptibility testing, MRSA; format: cell-based, methicillin resistant Staphylococcus aureus; settings: Table 1
Protocol: (§1) Using standard susceptibility tests, the compounds of the invention were determined to be active against MRSA, C. neoformans and several other bacteria, fungi and protozoa. More specifically, the antibacterial and antifungal testing was carried out in the following manner. Cryptococcus neoformans ATCC 90113 and MRSA were obtained from the American Type Culture Collection (Manassas. Va.). Several others including Candida albicans ATTC 90028, Aspergillus fumigatus ATCC 90906 and Mycobacterium intracellulare (M. intracellulare) ATCC 23086 were also procured. Susceptibility testing was performed using a modified version of the National Committee for Clinical Laboratory Standards method. M. intracellulare was tested using a modified method of Franzblau, et al., J. Clin. Microbiol., 1998, 36, 362-366. DMSO solutions of samples were serially diluted in saline, and transferred in duplicate to 96 well microplates. Microbial suspensions were diluted in the broth to afford desired colony forming units/mL according to the 0.5 McFarland Standard [C. Albicans: either Saboraud Dextrose broth (SDB) or RPMI 1640, C. neoformans: SDB, A fumigatus: either YM broth (for MICS) or RPMI-1640+5% Alamar Blue.] After adding microbial cultures to the sampled afforded a final volume of 200 μL and final test concentration starting with 20 μg/mL, plates were read prior to and after final incubation using either fluorescence at 544ex/590em (M intracellulare, A. fumigatus) using the Polarstar galaxy reader (Biotek Instruments, Vermont). Growth (saline only), solvent and blank (media only) controls were included on each test plate. Drug controls [Ciprofloxacin (ICN Biomedicals, Ohio) for bacteria and Amphotericin B (ICN Biomedicals, Ohio) for fungi] were included in each assay. Percent growth was calculated and plotted versus test concentration to afford IC50 (sample concentration that affords 50% inhibition or growth of the organism). The minimum inhibitory concentration (MIC) was determined by visually inspecting the plate, and is defined as the lowest test concentration that allows no detectable growth (for Almar Blue assays, no color change from blue to pink).

[2] = tested on: Candida albicans ATTC 90028; assay: Antifungal susceptibility testing, Candida albicans; format: cell-based; settings: Table 1
Protocol: as §1

[3] = tested on: Cryptococcus neoformans ATCC 90113; assay: Antifungal susceptibility testing, Cryptococcus neoformans; format: cell-based; settings: Table 1
Protocol: as §1

[4] = tested on: Aspergillus fumigatus ATCC 90906; assay: Antifungal susceptibility testing, Aspergillus fumigatus; format: cell-based; settings: Table 1; Aspergillus fumigatus
Protocol: as §1

Compound	MRS IC50 [1]	MRS MFC [1]	MRS MIC [1]	Ca IC50 [2]	Ca MFC [2]	Ca MIC [2]	Cn IC50 [3]	Cn MFC [3]	Cn MIC [3]	A fu IC50 [4]	A fu MFC [4]	A fu MIC [4]
C[n+]1cc(Sc2ccc(C(F)(F)F)cc2)cc2ccccc21.[I-] [XYZ-III-65]	— ((-) = >20 μg/mL)	— ((-) = >20 μg/mL)	— ((-) = >20 μg/mL)	— ((-) = >20 μg/mL)	— ((-) = >20 μg/mL)	— ((-) = >20 μg/mL)	— ((-) = >20 μg/mL)	— ((-) = >20 μg/mL)	— ((-) = >20 μg/mL)	— ((-) = >20 μg/mL)	— ((-) = >20 μg/mL)	— ((-) = >20 μg/mL)
COc1ccc(Sc2cc3ccccc3[n+](C)c2)cc1.[I-] [XYZ-III-71]	— ((-) = >20 μg/mL)	— ((-) = >20 μg/mL)	— ((-) = >20 μg/mL)	— ((-) = >20 μg/mL)	— ((-) = >20 μg/mL)	— ((-) = >20 μg/mL)	— ((-) = >20 μg/mL)	— ((-) = >20 μg/mL)	— ((-) = >20 μg/mL)	— ((-) = >20 μg/mL)	— ((-) = >20 μg/mL)	— ((-) = >20 μg/mL)
COc1ccc(Sc2cc3ccccc3[n+](CCCCCc3ccccc3)c2)cc1.[I-] [XYZ-III-72]	2.0 µg/mL	10 µg/mL	5.0 µg/mL	— ((-) = >20 μg/mL)	— ((-) = >20 μg/mL)	— ((-) = >20 μg/mL)	9.5 µg/mL	— ((-) = >20 μg/mL)	20 µg/mL	3.5 µg/mL	— ((-) = >20 μg/mL)	10 µg/mL
Clc1ccccc1Sc1cc2ccccc2[n+](CCCCCc2ccccc2)c1.[I-] [XYZ-III-74]	1.0 µg/mL	10 µg/mL	2.5 µg/mL	— ((-) = >20 μg/mL)	— ((-) = >20 μg/mL)	— ((-) = >20 μg/mL)	2.0 µg/mL	20 µg/mL	5.0 µg/mL	0.70 µg/mL	— ((-) = >20 μg/mL)	2.5 µg/mL
[I-].c1ccc(CCCCC[n+]2cc(Oc3ccccc3)cc3ccccc32)cc1 [XYZ-III-83]	15 µg/mL	— ((-) = >20 μg/mL)	20 µg/mL	— ((-) = >20 μg/mL)	— ((-) = >20 μg/mL)	— ((-) = >20 μg/mL)	— ((-) = >20 μg/mL)	— ((-) = >20 μg/mL)	— ((-) = >20 μg/mL)	2.0 µg/mL	— ((-) = >20 μg/mL)	— ((-) = >20 μg/mL)
Brc1ccccc1Sc1cc2ccccc2[n+](CCCCCc2ccccc2)c1.[I-] [XYZ-III-85]	0.95 µg/mL	10 µg/mL	2.5 µg/mL	20 µg/mL	— ((-) = >20 μg/mL)	— ((-) = >20 μg/mL)	1.5 µg/mL	10 µg/mL	5.0 µg/mL	0.50 µg/mL	— ((-) = >20 μg/mL)	5.0 µg/mL
Brc1cccc(Sc2cc3ccccc3[n+](CCCCCc3ccccc3)c2)c1.[I-] [XYZ-III-87]	2.0 µg/mL	20 µg/mL	5.0 µg/mL	— ((-) = >20 μg/mL)	— ((-) = >20 μg/mL)	— ((-) = >20 μg/mL)	2.0 µg/mL	20 µg/mL	5.0 µg/mL	3.0 µg/mL	— ((-) = >20 μg/mL)	10 µg/mL
Brc1ccc(Sc2cc3ccccc3[n+](CCCCCc3ccccc3)c2)cc1.[I-] [XYZ-III-89]	1.5 µg/mL	10 µg/mL	2.5 µg/mL	15 µg/mL	— ((-) = >20 μg/mL)	— ((-) = >20 μg/mL)	1.0 µg/mL	10 µg/mL	2.5 µg/mL	1.5 µg/mL	— ((-) = >20 μg/mL)	2.5 µg/mL
